For data set [1], the system named is KTC-ICR mice. The data set is described as follows: phenyl-1,4-benzoquinone (PBQ) induced writhing test (analgesic effect). Format: in vivo. Conditions: Mus musculus, ip, read-out: ED50 PBQ. As for the experimental part: (§1) Physiological activities of the compounds obtained in Examples 1 to 11 were measured by employing acetic acid or phenyl-1,4-benzoquinone(PBQ) induced writhing test.
(§2) The KTC-ICR mice provided by Experimental Animal Laboratory of Korea Research Institute of Chemical Technology were used as test animals. […] They were tested in a group consisting of 8 mice for each dosage of a test compound after having been adjusted to the testing environment for a week. Food and water were given freely; and illumination was maintained on a 12-hour cycle.
(§3) Test solutions were prepared by dissolving one of the final products obtained in Examples 1 to 11 in distilled water containing 1% of Tween and 5% ethanol in a pre-determined concentration. The test solutions were used after serial dilution depending on each dosage.
(§4) The test solutions were intraperitoneally administered in a dose of 0.1 ml per 10 g of a body weight. 0.1 ml of 1% acetic acid solution or 0.1 ml of 0.02% PBQ solution was administered after 60 minutes in case of oral administration or after 30 minutes in case of subcutaneous injection.
(§5) Then, the number of writhings generated during a period of 10 minutes after 3 minutes from the administration of acetic acid was measured. In case of the administration of PBQ, the number of writhings generated during a period of 5 minutes after 5 minutes from the administration was measured.
(§6) For a comparison purpose, initially, distilled water containing 1% of Tween and 5% ethanol alone was administered to the control group. Then, the control groups were subjected the same procedure as the test groups.
(§7) The number of writhings suffered by the test group was compared with that of the control group; and the analgesic effect was measured in terms of the percentage of inhibition of writhing(I. W.). [formula] wherein: A is the number of writhings suffered by the control group; and
(§8) B is the number of writhings suffered by the test group.
(§9) I.W. values for each dosage were calculated by employing regression analysis. The amount of a test compound which is required in reducing the frequency of writhings to the 50% level of that generated by the control group, i.e., B=0.5A or I.W.=50%, is designated as ED50 (mg/kg of a body weight). Therefore, a lower value of ED50 represents a higher analgesic effect of the tested compound.
(An intraperitoneal irritant provokes the stretching counted in writhing tests.)

The test system of data set [2] is KTC-ICR mice. The data set is described as follows: acetic acid induced writhing test (analgesic effect). Format: in vivo. Particulars: for ED50: Mus musculus, ip, read-out: ED50 acetic acid. As for the experimental part:
as §1, §2, §3, §4, §5, §6, §7, §8, §9

The next data set deals with test animals. In words: toxicity test: behavioral changes in the test animals observed by the naked eye. On the set-up: key to Convulsion / Salivation / Urination: score; normal value 0, higher number = greater side effects. Particulars: score; for Convulsion / Salivation / Urination: normal value 0; for Dyspnoea / Ptosis / Sedation / Vasodilation: normal value 4. Format: in vivo, KTC-ICR mice. As for the experimental part:
In order to monitor a harmful side-effect or toxicity of the present compounds, various behavioral changes in the test animals were observed. After the test and the control solutions were administered to the animals, symptoms such as sedation, ptosis, dyspnoea, vasodilation, convulsion, salivation and urination were observed by the naked eye and the level of such changes was represented by a numbering system: that is, the normal value of the last three behaviors(i.e., urination, convulsion and salivation) is 0; and that of the others(i.e., sedation, ptosis, dyspnoea and vasodilation) is 4. The higher the number is, the greater the side effects are.

[3] abbreviates: acetic acid induced writhing, 50% reduction of writhings vs control group, mice 20 to 25 g.
Setting [4] is: PBQ induced writhing, 50% reduction of writhings vs control group, mice 14 to 18 g.

This note sets out measurements from patent publication US5670546A, “N-Arylalkylphenylacetamide derivatives” (Korean Research Institute of Chemical Technology, priority 1995, dated 1997).

Consider `CC(=O)Oc1ccccc1C(=O)O` [Aspirin], for which, in the data set on KTC-ICR mice [1], the median effective dose (ED50) was determined as 71.4 mg/kg.
Consider `COc1cc(CNC(=O)CCCC/C=C/C(C)C)ccc1O` [Capsaicin, Nvanillyl-trans-8-methyl-6-nonenamide, reference compound], for which the ED50 in the data set on KTC-ICR mice [2] came out at 1.34 mg/kg.
In the data set on test animals (Amount 0.2 mgg), `COc1cc(CC(=O)NCCCc2ccc(C)c(C)c2)ccc1OCCN` [Control, reference compound] yielded a Convulsion of 1, a Salivation of 0, a Urination of 0 and a Dyspnoea of 4. Moreover, in the data set with test animals (Amount 0.2 mgg), the Ptosis is 4, the Sedation is recorded as 4 and the Vasodilation came out at 4. In the data set with test animals (Amount 0.25 mgg), this compound had a Convulsion of 1, a Salivation of 0, a Urination of 0 and a Dyspnoea of 5. In the data set on test animals (Amount 0.25 mgg), the Ptosis amounted to 6, the Sedation was 6 and the Vasodilation is recorded as 5. In the data set with test animals (Amount 0.5 mgg), this compound returned a Convulsion of 1, a Salivation of 0, a Urination of 0 and a Dyspnoea of 6. In addition, in the data set on test animals (Amount 0.5 mgg), the Ptosis is on record as 7, the Sedation is listed as 7 and the Vasodilation came to 5. In the data set with test animals (Amount 1 mgg), this compound displayed a Convulsion of 1, a Salivation of 0, a Urination of 0 and a Dyspnoea of 6. In the data set on test animals (Amount 1 mgg), this compound yielded a Ptosis of 7, a Sedation of 7 and a Vasodilation of 6.
As for `COc1cc(CC(=O)NCCCc2ccc(C)c(C)c2)ccc1OCCO` [Example 1, N-{3-(3,4-dimethylphenyl)propyl}-4-(2-hydroxyethoxy)-3-methoxyphenylacetamide], in the data set with KTC-ICR mice [2] (setting [3]), the 50% effective dose (ED50) is 2.01 mg/kg. In the data set on test animals (Amount 1 mgg), the Convulsion was determined as 0, the Salivation was 0, the Urination is recorded as 0 and the Dyspnoea is reported as 4. Further, in the data set on test animals (Amount 1 mgg), the Ptosis is on record as 4, the Sedation is given as 4 and the Vasodilation worked out at 4. In addition, in the data set with test animals (Amount 2 mgg), the Convulsion amounted to 0, the Salivation is on record as 0, the Urination came out at 0 and the Dyspnoea is recorded as 4. In the data set on test animals (Amount 2 mgg), this compound showed a Ptosis of 4, a Sedation of 4 and a Vasodilation of 4. In the data set on test animals (Amount 4 mgg), the Convulsion turned out to be 0, the Salivation is 0, the Urination is recorded as 0 and the Dyspnoea stood at 5. Besides, in the data set with test animals (Amount 4 mgg), the Ptosis is on record as 5, the Sedation stood at 6 and the Vasodilation turned out to be 5.
For the compound `COc1cc(CC(=O)NCCCc2ccc(C)c(C)c2)ccc1OCCN(CCO)CCO` [Example 3, N-{3-(3,4-dimethylphenyl)propyl}-4-[2-{N,N-di(2-hydroxyethyl)}aminoethoxy]-3-methoxyphenylacetamide], the ED50 in the data set with KTC-ICR mice [2] (setting [3]) amounted to 1.41 mg/kg. In the data set on test animals (Amount 1.25 mgg), the Convulsion worked out at 0, the Salivation turned out to be 0, the Urination was 0 and the Dyspnoea amounted to 4. In the data set on test animals (Amount 1.25 mgg), the Ptosis came to 4, the Sedation was 4 and the Vasodilation is given as 4. In the data set with test animals (Amount 2.5 mgg), this compound returned a Convulsion of 0, a Salivation of 0, a Urination of 0 and a Dyspnoea of 4. In the data set with test animals (Amount 2.5 mgg), this compound yielded a Ptosis of 5, a Sedation of 5 and a Vasodilation of 4. In addition, in the data set with test animals (Amount 5 mgg), the Convulsion was determined as 0, the Salivation is given as 0, the Urination was 0 and the Dyspnoea came to 6. Further, in the data set on test animals (Amount 5 mgg), the Ptosis is 7, the Sedation came out at 6 and the Vasodilation is on record as 5.
Regarding `COc1cc(CC(=O)NCCCc2ccc(C)c(C)c2)ccc1OCCNCCN` [Example 4, N-{3-(3,4-dimethylphenyl)propyl}-4-[2-{N-(2-aminoethyl)}aminoethoxy]-3-methoxyphenylacetamide], in the data set on KTC-ICR mice [2] (setting [3]), the 50% effective dose (ED50) was 1.78 mg/kg.
`COc1cc(CC(=O)NCCCc2ccc(C)c(C)c2)ccc1OCCN1CCNCC1` [Example 5, N-{3-(3,4-dimethylphenyl)propyl}-4-(2-piperazinylethoxy)-3-methoxyphenylacetamide]: in the data set on KTC-ICR mice [2] (setting [3]), the ED50 is over 20 mg/kg. Besides, in the data set with test animals (Amount 1 mgg), the Convulsion is on record as 0, the Salivation stood at 0, the Urination is 0 and the Dyspnoea came out at 4. In the data set on test animals (Amount 1 mgg), this compound returned a Ptosis of 4, a Sedation of 4 and a Vasodilation of 4. In addition, in the data set on test animals (Amount 2 mgg), the Convulsion came to 0, the Salivation turned out to be 0, the Urination is listed as 0 and the Dyspnoea is given as 4. In the data set with test animals (Amount 2 mgg), the Ptosis is listed as 4, the Sedation is recorded as 4 and the Vasodilation came out at 4. In the data set with test animals (Amount 4 mgg), this compound had a Convulsion of 0, a Salivation of 0, a Urination of 0 and a Dyspnoea of 4. In the data set with test animals (Amount 4 mgg), this compound had a Ptosis of 6, a Sedation of 6 and a Vasodilation of 4.
In the case of `COc1cc(CC(=O)NCCCc2ccc(C)c(C)c2)ccc1OCCNC=O` [Example 6], in the data set with KTC-ICR mice [2] (setting [3]), the ED50 is 0.26 mg/kg.
Still for that read-out and setting: then `COc1cc(CC(=O)NCCCc2ccc(C)c(C)c2)ccc1OCCNC(=O)OCc1ccccc1` [Example 7, N-{3-(3,4-dimethylphenyl)propyl}-4-{2-(N-benzyloxycarbonyl)aminoethoxy}-3-methoxyphenylacetamide], with 1.51 mg/kg.
On to `CNCCOc1ccc(CC(=O)NCCCc2ccc(C)c(C)c2)cc1OC` [Example 8, N-{3-(3,4-dimethylphenyl)propyl}-4-(2-methylaminoethoxy)-3-methoxyphenylacetamide], for which, in the data set on KTC-ICR mice [1] (setting [4]), the ED50 was found to be 0.68 mg/kg.
Turning to `COc1cc(CC(=O)NCCCc2ccc(C)c(C)c2)ccc1OCCN1CCCC1` [Example 9, N-{3-(3,4-dimethylphenyl)propyl}-4-{2-(1-pyrrolidinyl)ethoxy}-3-methoxyphenylacetamide], in the data set on KTC-ICR mice [2] (setting [3]), the ED50 was over 5 mg/kg.
Take `CCOC(=O)NCCOc1ccc(CC(=O)NCCCc2ccc(C)c(C)c2)cc1OC` [Example 10, N-{3-(3,4-dimethylphenyl)propyl}-4-{2-(N-ethyloxycarbonyl)aminoethoxy}-3-methoxyphenylacetamide]: the ED50 acetic acid in the data set with KTC-ICR mice [2] (setting [3]) is > 10 mg/kg of a body weight.
Turning to `COc1cc(CC(=O)NCCCc2ccc(C)c(C)c2)ccc1OCCNC(=O)c1ccccc1OC(C)=O` [Example 11, N-{3-(3,4-dimethylphenyl)propyl}-4-[2-{N-(2-acetoxybenzoyl)}aminoethoxy]-3-methoxyphenylacetamide], the ED50 with KTC-ICR mice [2] (setting [3]) was 4.15 mg/kg.
With `CC(C)Cc1ccc(C(C)C(=O)O)cc1` (stereo not shown) [Ibuprofen], in the data set with KTC-ICR mice [1] (setting [4]), the median effective dose (ED50) was 11 mg/kg.
Consider `CCCCCCCC/C=C\CCCCCCCC(=O)NCc1ccc(O)c(OC)c1` [NE-19550, Nvanillyloleamide, reference compound], for which the ED50 in the data set with KTC-ICR mice [2] came out at 15.7 mg/kg.
Turning to `CCCCCCCC/C=C\CCCCCCCC(=O)NCc1ccc(OCCN)c(OC)c1` [NE-21610, N{4(2-aminoethoxy)-3-methoxybenzyl)-oleamide, reference compound], the ED50 in the data set on KTC-ICR mice [2] (setting [3]) was over 300 mg/kg; with KTC-ICR mice [1] (setting [4]), 38.3 mg/kg.
As for `COc1ccc2cc([C@H](C)C(=O)O)ccc2c1` [Naproxen], the 50% effective dose (ED50) with KTC-ICR mice [1] (setting [4]) came to 17.1 mg/kg.
In the case of `CCCCC1C(=O)N(c2ccccc2)N(c2ccccc2)C1=O` [Phenylbutazone], the ED50 in the data set on KTC-ICR mice [1] (setting [4]) was 79.8 mg/kg.

In general, ED50 refers to the dose at which the effect has come halfway, by size or by number of responders.
